Experimental data from patent US8153787B2 (priority 2005, dated 2012).
Values after ≈ are worked out from the molar mass of the structure shown. Read-outs that look alike come from different tables or passages of the source.

What was measured:
[1] = system: Varicella-Zoster Virus (VZV); test: microbe, parasite or virus in culture; type: cell-based; settings: Human alphaherpesvirus 3, HEL
[2] = system: Human Cytomegalovirus (HCMV); test: microbe, parasite or virus in culture; type: cell-based
Vaccinia virus = test: organism not typed; type: cell-based; settings: HEL
Cowpox virus (Brighton) = test: microbe, parasite or virus in culture; type: cell-based; settings: Cowpox virus, HEL, read-out: EC50 Cowpox virus Brighton
Orf virus (NZ2) = test: microbe, parasite or virus in culture; type: cell-based; settings: Orf virus, HEL, read-out: EC50 Orf virus NZ2
[3] = system: herpes simplex virus type 1 (HSV-1); test: microbe, parasite or virus in culture; type: cell-based; settings: Human alphaherpesvirus 1, HEL, read-out: EC50 HSV-1 (Kos strain)
[4] = system: herpes simplex virus type 2 (HSV-2); test: microbe, parasite or virus in culture; type: cell-based; settings: Human alphaherpesvirus 2, HEL, read-out: EC50 HSV-2 (G strain)
[5] = system: primate polyomavirus (SV40); test: microbe, parasite or virus in culture; type: cell-based, simian polyomavirus SV40; settings: for EC50: Polyomavirus sp., BSC-1, in Primates
murine polyomavirus = test: microbe, parasite or virus in culture; type: cell-based; settings: for EC50: Alphapolyomavirus muris, UC1, UC1B
in vitro [6] = settings: human, […]
in vitro [7] = settings: African green monkey
in vitro [8] = settings: mouse
[9] = system: Vaccinia virus (Western Reserve) and recombinant viruses harboring the A314T, A684V or A314T+A684V mutations; type: cell-based
[10] = system: Molluscum contagiosum virus (MCV) clinical isolates; test: microbe, parasite or virus in culture; type: cell-based; settings: Keratinocyte
[11] = system: vaccinia virus (Lederle strain); test: microbe, parasite or virus in culture; type: cell-based; settings: Orthopoxvirus vaccinia, HEL
HSV-1 (Kos strain) = test: microbe, parasite or virus in culture; type: cell-based, Herpes simplex virus type 1; settings: Human alphaherpesvirus 1, HEL
HEL cells = settings: human
HSB-2 cells = settings: human
MOLT-3 cells = settings: human
in vitro [12] = settings: human
[13] = read-out: EC50 VZV 07/1 strain (HEL cells)
[14] = read-out: EC50 VZV OKA strain (HEL cells)
[15] = Human betaherpesvirus 5, AD169, HEL, read-out: EC50 HCMV AD-169 strain (HEL cells)
[16] = Human betaherpesvirus 5, HEL, read-out: EC50 HCMV Davis strain (HEL cells)
[17] = read-out: EC50 Vaccinia Virus Lister
[18] = Orthopoxvirus vaccinia, read-out: EC50 Vaccinia Virus Copenhagen
[19] = Orthopoxvirus vaccinia, read-out: EC50 Vaccinia Virus Lederle
[20] = Orthopoxvirus vaccinia, read-out: EC50 Vaccinia Virus WR
[21] = read-out: antiviral activity (EC50) SV40 PML-1 strain EK
[22] = read-out: antiviral activity (EC50) SV40 PML-2 strain DAR
[23] = read-out: antiviral activity (EC50) SV40 strain A2895
[24] = read-out: antiviral activity (EC50) 2PTA2
[25] = read-out: antiviral activity (EC50) LID-1
[26] = read-out: antiviral activity (EC50) MN/RDE Toronto
[27] = read-out: antiviral activity (EC50) PTA
[28] = read-out: EC50 VZV YS strain (HEL cells)
[29] = read-out: EC50 VZV YS-R strain (HEL cells)

Nc1ncn(C[C@H]2COP(=O)(O)CO2)c(=O)n1 [Compound 11, 1-{[(5S)-2-Hydroxy-2-oxido-1,4,2-dioxaphosphinan-5-yl]methyl}-5-azacytosine]
EC50 [1, 13]: 50 ng/mL (≈ 0.191 µM)
EC50 [1, 14]: 80 ng/mL (≈ 0.305 µM)
EC50 [2, 15]: 93 ng/mL (≈ 0.355 µM)
EC50 [2, 16]: 61 ng/mL (≈ 0.233 µM)
EC50 (Vaccinia virus; [17]): 1.38 µg/mL (≈ 5.26 µM)
EC50 (Vaccinia virus; [18]): 1.76 µg/mL (≈ 6.71 µM)
EC50 (Vaccinia virus; [19]): 3.1 µg/mL (≈ 11.8 µM)
EC50 (Vaccinia virus; [20]): 2.08 µg/mL (≈ 7.93 µM)
EC50 (Cowpox virus (Brighton)): 5.64 µg/mL (≈ 21.5 µM)
EC50 (Orf virus (NZ2)): 0.09 µg/mL (≈ 0.343 µM)
EC50 [3]: 0.017 µg/mL (≈ 0.0648 µM)
EC50 [4]: 0.58 µg/mL (≈ 2.21 µM)
selectivity index SV40 PML-1 strain EK [5]: 8
selectivity index SV40 PML-2 strain DAR [5]: 7
selectivity index SV40 strain A2895 [5]: 8
EC50 [5, 21]: 4.6 µg/mL (≈ 17.5 µM)
EC50 [5, 22]: 5.05 µg/mL (≈ 19.3 µM)
EC50 [5, 23]: 4.39 µg/mL (≈ 16.7 µM)
selectivity index 2PTA2 (murine polyomavirus): 13
selectivity index LID-1 (murine polyomavirus): 7
selectivity index MN/RDE Toronto (murine polyomavirus): 17
selectivity index PTA (murine polyomavirus): 7
EC50 (murine polyomavirus; [24]): 4.39 µg/mL (≈ 16.7 µM)
EC50 (murine polyomavirus; [25]): 8.05 µg/mL (≈ 30.7 µM)
EC50 (murine polyomavirus; [26]): 3.43 µg/mL (≈ 13.1 µM)
EC50 (murine polyomavirus; [27]): 8.59 µg/mL (≈ 32.8 µM)
CC50 (in vitro [6]): > 50 µg/mL
CC50 (in vitro [7]): 36.4 µg/mL (≈ 139 µM)
CC50 (in vitro [8]): 58.4 µg/mL (≈ 223 µM)

CCCCCCCCCCCCCCCCOCCOP1(=O)CO[C@@H](Cn2cnc(N)nc2=O)CO1 (stereo partly drawn) [Compound 12, hexadecyloxyethyl ester of 1-{[(5S)-2-Hydroxy-2-oxido-1,4,2-dioxaphosphinan-5-yl]methyl}-5-azacytosine]
EC50 [1, 13]: < 0.02 ng/mL
EC50 [1, 14]: < 0.02 ng/mL
EC50 [1, 28]: < 0.02 ng/mL
EC50 [1, 29]: < 0.02 ng/mL
EC50 [2, 15]: < 0.02 ng/mL
EC50 [2, 16]: < 0.02 ng/mL
EC50 (Vaccinia virus; [17]): < 0.032 µg/mL
EC50 (Vaccinia virus; [18]): < 0.032 µg/mL
EC50 (Vaccinia virus; [19]): < 0.032 µg/mL
EC50 (Vaccinia virus; [20]): 0.072 µg/mL (≈ 0.136 µM)
EC50 (Cowpox virus (Brighton)): < 0.032 µg/mL
EC50 (Orf virus (NZ2)): < 0.032 µg/mL
EC50 [3]: 0.072 µg/mL (≈ 0.136 µM)
EC50 [4]: 0.36 µg/mL (≈ 0.678 µM)
selectivity index SV40 PML-1 strain EK [5]: 57.6
selectivity index SV40 PML-2 strain DAR [5]: 38.7
selectivity index SV40 strain A2895 [5]: 44.5
EC50 [5, 21]: 0.15 µg/mL (≈ 0.283 µM)
EC50 [5, 22]: 0.18 µg/mL (≈ 0.339 µM)
EC50 [5, 23]: 0.16 µg/mL (≈ 0.302 µM)
selectivity index 2PTA2 (murine polyomavirus): 33.8
selectivity index LID-1 (murine polyomavirus): 21.3
selectivity index MN/RDE Toronto (murine polyomavirus): 34.9
selectivity index PTA (murine polyomavirus): 35.6
EC50 (murine polyomavirus; [24]): 0.3 µg/mL (≈ 0.565 µM)
EC50 (murine polyomavirus; [25]): 0.47 µg/mL (≈ 0.886 µM)
EC50 (murine polyomavirus; [26]): 0.29 µg/mL (≈ 0.547 µM)
EC50 (murine polyomavirus; [27]): 0.28 µg/mL (≈ 0.528 µM)
CC50 (in vitro [6]): 6 µg/mL (≈ 11.3 µM)
CC50 (in vitro [7]): 7.1 µg/mL (≈ 13.4 µM)
CC50 (in vitro [8]): 10 µg/mL (≈ 18.8 µM)

CCCCCCCCCCCCCCCCCCOP1(=O)CO[C@@H](Cn2cnc(N)nc2=O)CO1 (stereo partly drawn) [Compound 15, octadecyl ester of 1-{[(5S)-2-hydroxy-2-oxido-1,4,2-dioxaphosphinan-5-yl]methyl}-5-azacytosine]
EC50 [1, 14]: 63 ng/mL (≈ 0.122 µM)
EC50 [2, 15]: 3.7 ng/mL (≈ 0.00719 µM)
EC50 [2, 16]: 1.4 ng/mL (≈ 0.00272 µM)
CC50 (in vitro [6]): > 100 µg/mL

Nc1cnn(C[C@@H](CO)OCP(=O)(O)O)c(=O)n1 [HPMP-6-azaC analogue, (S)-1-[3-hydroxy-2-(phosphonomethoxy)propyl]-6-azacytosine]
EC50 [1, 13]: 18400 ng/mL (≈ 65.7 µM)
EC50 [1, 14]: 38200 ng/mL (≈ 136 µM)
EC50 [1, 28]: 42000 ng/mL (≈ 150 µM)
EC50 [1, 29]: 17000 ng/mL (≈ 60.7 µM)
EC50 [2, 15]: 30000 ng/mL (≈ 107 µM)
EC50 [2, 16]: 37300 ng/mL (≈ 133 µM)
EC50 (Vaccinia virus; [17]): ≥ 79.3 µg/mL
EC50 (Vaccinia virus; [18]): > 100 µg/mL
EC50 (Vaccinia virus; [19]): ≥ 81.6 µg/mL
EC50 (Vaccinia virus; [20]): > 100 µg/mL
EC50 (Cowpox virus (Brighton)): > 100 µg/mL
EC50 (Orf virus (NZ2)): ≥ 63.8 µg/mL
CC50 (in vitro [6]): > 50 µg/mL

Nc1ccn(C[C@@H](CO)OCP(=O)(O)O)c(=O)n1 [HPMPC, (S)-1-(3-hydroxy-2-phosphonylmethoxypropyl)cytosine, reference compound]
EC50 [1, 13]: 50 ng/mL (≈ 0.179 µM)
EC50 [1, 14]: 200 ng/mL (≈ 0.716 µM)
EC50 [2, 15]: 200 ng/mL (≈ 0.716 µM)
EC50 [2, 16]: 300 ng/mL (≈ 1.07 µM)
EC50 (Vaccinia virus; [17]): 2.45 µg/mL (≈ 8.78 µM)
EC50 (Vaccinia virus; [18]): 4.35 µg/mL (≈ 15.6 µM)
EC50 (Vaccinia virus; [19]): 2.43 µg/mL (≈ 8.7 µM)
EC50 (Vaccinia virus; [20]): 5.82 µg/mL (≈ 20.8 µM)
EC50 (Cowpox virus (Brighton)): 8.43 µg/mL (≈ 30.2 µM)
EC50 (Orf virus (NZ2)): 0.2 µg/mL (≈ 0.716 µM)
EC50 Vaccinia virus (Western Reserve) wild-type [9]: 3.1 µg/mL (≈ 11.1 µM)
EC50 recombinant vaccinia virus 314 + 684 [9]: 39.5 µg/mL
EC50 recombinant vaccinia virus 684 [9]: 14.8 µg/mL
EC50 recombinant vaccinia virus A314T [9]: 22.2 µg/mL
EC50 [3]: 0.16 µg/mL (≈ 0.573 µM)
EC50 [4]: 0.54 µg/mL (≈ 1.93 µM)
EC50 [5, 21]: 5.56 µg/mL (≈ 19.9 µM)
EC50 [5, 22]: 5.87 µg/mL (≈ 21 µM)
EC50 [5, 23]: 4.72 µg/mL (≈ 16.9 µM)
EC50 (murine polyomavirus; [24]): 5.78 µg/mL (≈ 20.7 µM)
EC50 (murine polyomavirus; [25]): 5.89 µg/mL (≈ 21.1 µM)
EC50 (murine polyomavirus; [26]): 2.76 µg/mL (≈ 9.89 µM)
EC50 (murine polyomavirus; [27]): 6.54 µg/mL (≈ 23.4 µM)
EC50 ([10]; read-out: EC50 MCV 06/02): 0.76 µg/mL (≈ 2.72 µM)
EC50 ([10]; read-out: EC50 MCV 06/03): 0.55 µg/mL (≈ 1.97 µM)
EC50 ([10]; read-out: EC50 MCV 06/04): 0.55 µg/mL (≈ 1.97 µM)
EC50 ([10]; read-out: EC50 MCV 06/06): 0.6 µg/mL (≈ 2.15 µM)
EC50 ([11]; 2 h, read-out: EC50 Vaccinia (Lederle strain), Treatment from 2 h till end of experiment): 3.98 µg/mL (≈ 14.3 µM)
EC50 ([11]; read-out: EC50 Vaccinia (Lederle strain), Pretreatment (−16 hours)): 5 µg/mL (≈ 17.9 µM)
EC50 ([11]; read-out: EC50 Vaccinia (Lederle strain), Treatment 2-4 hours): 20 µg/mL (≈ 71.6 µM)
EC50 ([11]; read-out: EC50 Vaccinia (Lederle strain), Treatment 2-6 hours): 9.06 µg/mL (≈ 32.5 µM)
EC50 ([11]; read-out: EC50 Vaccinia (Lederle strain), Treatment 2-8 hours): 10 µg/mL (≈ 35.8 µM)
EC50 (HSV-1 (Kos strain); 2 h, read-out: EC50 HSV-1 (Kos strain), Treatment from 2 h till end of experiment): 0.43 µg/mL (≈ 1.54 µM)
EC50 (HSV-1 (Kos strain); read-out: EC50 HSV-1 (Kos strain), Pretreatment (−16 hours)): 1 µg/mL (≈ 3.58 µM)
EC50 (HSV-1 (Kos strain); read-out: EC50 HSV-1 (Kos strain), Treatment 2-4 hours): 2.51 µg/mL (≈ 8.99 µM)
EC50 (HSV-1 (Kos strain); read-out: EC50 HSV-1 (Kos strain), Treatment 2-6 hours): 1.1 µg/mL (≈ 3.94 µM)
EC50 (HSV-1 (Kos strain); read-out: EC50 HSV-1 (Kos strain), Treatment 2-8 hours): 1 µg/mL (≈ 3.58 µM)
Toxicity MCC (microscop) (HEL cells): >79 µg/mL
Toxicity MCC (microscopy), HSB-2 cells (HSB-2 cells): 19 µg/mL
Toxicity MCC (microscopy), MOLT-3 cells (MOLT-3 cells): 32 µg/mL
CC50 (in vitro [6]): 68.6 µg/mL (≈ 246 µM)
CC50 (in vitro [7]): 79.4 µg/mL (≈ 284 µM)
CC50 (in vitro [8]): 84.3 µg/mL (≈ 302 µM)
CC50 (in vitro [12]): > 79 µg/mL
